Test results as given in patent publication US20250099557A1, “ANTIBIOTIC PHARMACEUTICAL COMPOSITION CAPABLE OF SUBCUTANEOUS ADMINISTRATION” (SHANGHAI BAO PHARMACEUTICALS CO., LTD., priority 2021, published 2025).

What was measured:
HAase = target: T1, HAase (Homo sapiens, UniProt P38567); assay: Compatibility study of HAase and antibiotic in solution: HAase activity; format: biochemical; conditions: 15 min room temperature; for Final concentration of HAase (units/ml) 500: HAase added to 500 units/ml; for Final concentration of HAase (units/ml) 6000: HAase added to 6000 units/ml
T1 construct: made in house
T1 sequence (P38567 36-482): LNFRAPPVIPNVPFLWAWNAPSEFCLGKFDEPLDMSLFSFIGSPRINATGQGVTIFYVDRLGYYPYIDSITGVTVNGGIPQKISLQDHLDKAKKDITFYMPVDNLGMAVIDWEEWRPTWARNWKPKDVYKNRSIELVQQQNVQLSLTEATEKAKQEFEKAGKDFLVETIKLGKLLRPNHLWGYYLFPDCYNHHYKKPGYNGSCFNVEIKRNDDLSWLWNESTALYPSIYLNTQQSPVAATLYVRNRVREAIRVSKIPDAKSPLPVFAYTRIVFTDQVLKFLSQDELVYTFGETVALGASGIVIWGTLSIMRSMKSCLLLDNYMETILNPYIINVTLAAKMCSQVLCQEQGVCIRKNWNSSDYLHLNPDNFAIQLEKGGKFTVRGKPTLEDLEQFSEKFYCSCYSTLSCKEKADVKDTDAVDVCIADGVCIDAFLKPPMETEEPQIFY

intestinal flora = assay: Effects of administration routes on the diversity of intestinal flora in mice (16S rDNA sequencing, OTU); format: in vivo; conditions: C57BL/6 mice, feces
Excerpt: 12 SPF grade C57BL/6 mice were used for each antibiotic mode, and divided into two groups, each having 6 mice. The two groups include an oral administration group, and a subcutaneous administration group combined with recombinant human HAase. A blank control group including 6 mice was also set. The mice in the oral administration group were given the model antibiotic solution by oral gavage for five consecutive days. The mice in the subcutaneous administration group combined with recombinant human HAase were given the same dose of model antibiotic as that in the oral administration group by subcutaneous administration for five consecutive days. The feces of mice in each group were collected on the 1 st, 2nd, 3rd, 4th, 5th, 6th, 8th, 10th and 14th days after five consecutive days of administration, and stored at −80° C., for detecting the microbial diversity later. The fecal samples of each group were amplified and sequenced by 16S rDNA sequencing. After DNA extraction, PCR amplification and gene sequencing, the changes of intestinal bacterial diversity in each group of mice were analyzed. The relative species diversity of the test group was calculated, with the OUT value of the blank control group in each day as a reference, as shown in Table 33.

[1] = antibiotic 30 mg/ml in physiological saline
[2] = antibiotic 300 mg/ml in physiological saline

Final concentration of HAase (units/ml) 150 (HAase; antibiotic 30 mg/ml in physiological saline, HAase added to 150 units/ml): 152 units/ml
Final concentration of HAase (units/ml) 500 (HAase; [1]): 501 units/ml
Final concentration of HAase (units/ml) 6000 (HAase; [1]): 6121 units/ml
Final concentration of HAase (units/ml) 500 (HAase; [2]): 511 units/ml
Final concentration of HAase (units/ml) 2000 (HAase; antibiotic 300 mg/ml in physiological saline, HAase added to 2000 units/ml): 1974 units/ml
Final concentration of HAase (units/ml) 6000 (HAase; [2]): 5990 units/ml
interference with the activity of HAase (HAase; antibiotic and HAase in physiological saline): not interfere with the activity of HAase
Relative abundance of OUT (operational taxonomic units) (intestinal flora; in combination with recombinant human HAase for subcutaneous administration, five consecutive days, D1 after administration): 30.5%
Relative abundance of OUT (operational taxonomic units) (intestinal flora; in combination with recombinant human HAase for subcutaneous administration, five consecutive days, D2): 30.9%
Relative abundance of OUT (operational taxonomic units) (intestinal flora; in combination with recombinant human HAase for subcutaneous administration, five consecutive days, D3): 28.9%
Relative abundance of OUT (operational taxonomic units) (intestinal flora; in combination with recombinant human HAase for subcutaneous administration, five consecutive days, D4): 31.2%
Relative abundance of OUT (operational taxonomic units) (intestinal flora; in combination with recombinant human HAase for subcutaneous administration, five consecutive days, D5): 28.2%
Relative abundance of OUT (operational taxonomic units) (intestinal flora; in combination with recombinant human HAase for subcutaneous administration, five consecutive days, D6): 33.2%
Relative abundance of OUT (operational taxonomic units) (intestinal flora; in combination with recombinant human HAase for subcutaneous administration, five consecutive days, D8): 36.8%
Relative abundance of OUT (operational taxonomic units) (intestinal flora; in combination with recombinant human HAase for subcutaneous administration, five consecutive days, D10): 36.7%
Relative abundance of OUT (operational taxonomic units) (intestinal flora; in combination with recombinant human HAase for subcutaneous administration, five consecutive days, D14): 39.3%
Relative abundance of OUT (operational taxonomic units) (intestinal flora; oral administration for five consecutive days, D1 after administration): 16.2%
Relative abundance of OUT (operational taxonomic units) (intestinal flora; oral administration for five consecutive days, D2): 13.1%
Relative abundance of OUT (operational taxonomic units) (intestinal flora; oral administration for five consecutive days, D3): 10.4%
Relative abundance of OUT (operational taxonomic units) (intestinal flora; oral administration for five consecutive days, D4): 14.6%
Relative abundance of OUT (operational taxonomic units) (intestinal flora; oral administration for five consecutive days, D5): 16.0%
Relative abundance of OUT (operational taxonomic units) (intestinal flora; oral administration for five consecutive days, D6): 15.3%
Relative abundance of OUT (operational taxonomic units) (intestinal flora; oral administration for five consecutive days, D8): 15.8%
Relative abundance of OUT (operational taxonomic units) (intestinal flora; oral administration for five consecutive days, D10): 20.9%
Relative abundance of OUT (operational taxonomic units) (intestinal flora; oral administration for five consecutive days, D14): 24.1%
Structure (SMILES): C[C@@H](O)[C@H]1C(=O)N2C(C(=O)O)=C(S[C@@H]3CN[C@H](C(=O)Nc4cccc(C(=O)O)c4)C3)[C@H](C)[C@H]12 [Ertapenem]
